# According to patent US11208405B2, “Pyrrole derivatives as PLK1 inhibitors” (SENTINEL ONCOLOGY LIMITED, priority 2017, dated 2021):
# Structures can show the parent of a compound that is named as a salt. Where two headings read alike, the source gives them in different places.
# Columns and labels:
# HCT116 cells = assay: Effects on HCT116 colorectal cancer cell viability (cell titre blue, 72 hours); type: cell-based; conditions: Homo sapiens, HCT-116, HCT116 cell line
# Kinetic solubility = type: physicochemical; conditions: kinetic from dmso stock
# [1] = Stability in human hepatocytes; type: in vitro ADME
# cytochrome P450 2C19 = cytochrome P450 2C19 (Homo sapiens, UniProt P33261); assay: Cytochrome P450 inhibition, 2C19; type: in vitro ADME
# [2] = Determination of brain exposure following oral dosing in mice; type: in vivo, male CD-1 mice; conditions: male, CD-1, mouse, 10 mg/Kg PO
# Method: Determination of Brain Exposure Following Oral Dosing in Mice An experiment was carried out on the compound of Example 33 to determine the extent of its brain penetration following oral dosing in mice. The following protocol was used. 15 male CD-1 mice (n=3/time point) were dosed perorally with the compound of Example 33 (10 mg/kg; dose concentration 1 mg/ml; dose volume 10 mL/kg). […] Animals were housed in pre-assigned housing cages until sampling. Appropriate samples were taken at […] time points and stored immediately at −20° C. Homogenisation and protein precipitation with acetonitrile was carried out for plasma and brain. Analysis was carried out with tandem mass spectrometry using electrospray ionisation. The results of the experiment are shown in FIG. 2 and in Table 10 below.
# [3] = tested on: glioblastoma cell line 906871; assay: Glioblastoma cancer cell viability, cell line 906871; type: cell-based
# Method: (§1) Assay to Measure the Effects of Compounds of the Invention on Glioblastoma Cancer Cell Viability
# (§2) The compound of Example 33 was tested for inhibitory activity against the glioblastoma cell lines in Table 7 below.
# [4] = tested on: glioblastoma cell line 1240170; assay: Glioblastoma cancer cell viability, cell line 1240170; type: cell-based
# Method: as §1, §2
# [5] = tested on: glioblastoma cell line 906746; assay: Glioblastoma cancer cell viability, cell line 906746; type: cell-based
# Method: as §1, §2
# [6] = tested on: glioblastoma cell line 907313; assay: Glioblastoma cancer cell viability, cell line 907313; type: cell-based
# Method: as §1, §2
# [7] = tested on: glioblastoma cell line 946370; assay: Glioblastoma cancer cell viability, cell line 946370; type: cell-based
# Method: as §1, §2
# AURKA = target: T1, AURKA (Homo sapiens, UniProt O14965); assay: Kinase selectivity assay (DiscoverX KinomeScreen), AURKA; type: binding; conditions: read-out: % Control
# T1 construct: purchased DiscoverX
# Method: (§3) The compound of Example 33 was tested for off-target activity against a panel of fifty five kinases bearing functional or structural similarity to PLK1 at a concentration of 5 μM using the DiscoverX KinomeScreen assay.
# EIF2AK1 = target: T2, EIF2AK1 (Homo sapiens, UniProt Q9BQI3); assay: Kinase selectivity assay (DiscoverX KinomeScreen), EIF2AK1; type: binding; conditions: EIF2AK1, 5 μM; read-out: % Control
# T2 construct: purchased DiscoverX
# Method: as §3
# GSG2 = target: T3, GSG2 (Homo sapiens, UniProt Q8TF76); assay: Kinase selectivity assay (DiscoverX KinomeScreen), GSG2; type: binding; conditions: GSG2, 5 μM; read-out: % Control
# T3 construct: purchased DiscoverX
# Method: as §3
# NEK11 = target: T4, NEK11 (Homo sapiens, UniProt Q8NG66); assay: Kinase selectivity assay (DiscoverX KinomeScreen), NEK11; type: binding; conditions: NEK11, 5 μM; read-out: % Control
# T4 construct: purchased DiscoverX
# Method: as §3
# PLK1 = target: T5, PLK1 (Homo sapiens, UniProt P53350); assay: Kinase selectivity assay (DiscoverX KinomeScreen), PLK1; type: binding; conditions: PLK1, 5 μM; read-out: % Control
# T5 construct: purchased DiscoverX
# Method: as §3
# PLK3 = target: T6, PLK3 (Homo sapiens, UniProt Q9H4B4); assay: Kinase selectivity assay (DiscoverX KinomeScreen), PLK3; type: binding; conditions: PLK3, 5 μM; read-out: % Control
# T6 construct: purchased DiscoverX
# Method: as §3
# ROCK2 = target: T7, ROCK2 (Homo sapiens, UniProt O75116); assay: Kinase selectivity assay (DiscoverX KinomeScreen), ROCK2; type: binding; conditions: ROCK2, 5 μM; read-out: % Control
# T7 construct: purchased DiscoverX
# Method: as §3
# SBK1 = target: T8, SBK1 (Homo sapiens, UniProt Q52WX2); assay: Kinase selectivity assay (DiscoverX KinomeScreen), SBK1; type: binding; conditions: SBK1, 5 μM; read-out: % Control
# T8 construct: purchased DiscoverX
# Method: as §3
# STK36 = target: T9, STK36 (Homo sapiens, UniProt Q9NRP7); assay: Kinase selectivity assay (DiscoverX KinomeScreen), STK36; type: binding; conditions: STK36, 5 μM; read-out: % Control
# T9 construct: purchased DiscoverX
# Method: as §3
# ULK3 = target: T10, ULK3 (Homo sapiens, UniProt Q6PHR2); assay: Kinase selectivity assay (DiscoverX KinomeScreen), ULK3; type: binding; conditions: ULK3, 5 μM; read-out: % Control
# T10 construct: purchased DiscoverX
# Method: as §3
# WNK2 = target: T11, WNK2 (Homo sapiens, UniProt Q9Y3S1); assay: Kinase selectivity assay (DiscoverX KinomeScreen), WNK2; type: binding; conditions: WNK2, 5 μM; read-out: % Control
# T11 construct: purchased DiscoverX
# Method: as §3
# T1 sequence (O14965 whole entry): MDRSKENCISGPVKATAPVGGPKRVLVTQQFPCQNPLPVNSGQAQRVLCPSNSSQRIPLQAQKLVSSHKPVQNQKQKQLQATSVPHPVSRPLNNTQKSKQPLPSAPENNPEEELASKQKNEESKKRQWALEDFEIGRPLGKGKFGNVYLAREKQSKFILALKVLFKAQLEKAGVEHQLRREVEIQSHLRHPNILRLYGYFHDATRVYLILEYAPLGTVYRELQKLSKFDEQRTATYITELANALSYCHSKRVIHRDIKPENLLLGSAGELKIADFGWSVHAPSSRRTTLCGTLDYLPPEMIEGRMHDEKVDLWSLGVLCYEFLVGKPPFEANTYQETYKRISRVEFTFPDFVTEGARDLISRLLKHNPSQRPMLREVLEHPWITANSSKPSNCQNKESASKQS
# T11 sequence (Q9Y3S1 whole entry): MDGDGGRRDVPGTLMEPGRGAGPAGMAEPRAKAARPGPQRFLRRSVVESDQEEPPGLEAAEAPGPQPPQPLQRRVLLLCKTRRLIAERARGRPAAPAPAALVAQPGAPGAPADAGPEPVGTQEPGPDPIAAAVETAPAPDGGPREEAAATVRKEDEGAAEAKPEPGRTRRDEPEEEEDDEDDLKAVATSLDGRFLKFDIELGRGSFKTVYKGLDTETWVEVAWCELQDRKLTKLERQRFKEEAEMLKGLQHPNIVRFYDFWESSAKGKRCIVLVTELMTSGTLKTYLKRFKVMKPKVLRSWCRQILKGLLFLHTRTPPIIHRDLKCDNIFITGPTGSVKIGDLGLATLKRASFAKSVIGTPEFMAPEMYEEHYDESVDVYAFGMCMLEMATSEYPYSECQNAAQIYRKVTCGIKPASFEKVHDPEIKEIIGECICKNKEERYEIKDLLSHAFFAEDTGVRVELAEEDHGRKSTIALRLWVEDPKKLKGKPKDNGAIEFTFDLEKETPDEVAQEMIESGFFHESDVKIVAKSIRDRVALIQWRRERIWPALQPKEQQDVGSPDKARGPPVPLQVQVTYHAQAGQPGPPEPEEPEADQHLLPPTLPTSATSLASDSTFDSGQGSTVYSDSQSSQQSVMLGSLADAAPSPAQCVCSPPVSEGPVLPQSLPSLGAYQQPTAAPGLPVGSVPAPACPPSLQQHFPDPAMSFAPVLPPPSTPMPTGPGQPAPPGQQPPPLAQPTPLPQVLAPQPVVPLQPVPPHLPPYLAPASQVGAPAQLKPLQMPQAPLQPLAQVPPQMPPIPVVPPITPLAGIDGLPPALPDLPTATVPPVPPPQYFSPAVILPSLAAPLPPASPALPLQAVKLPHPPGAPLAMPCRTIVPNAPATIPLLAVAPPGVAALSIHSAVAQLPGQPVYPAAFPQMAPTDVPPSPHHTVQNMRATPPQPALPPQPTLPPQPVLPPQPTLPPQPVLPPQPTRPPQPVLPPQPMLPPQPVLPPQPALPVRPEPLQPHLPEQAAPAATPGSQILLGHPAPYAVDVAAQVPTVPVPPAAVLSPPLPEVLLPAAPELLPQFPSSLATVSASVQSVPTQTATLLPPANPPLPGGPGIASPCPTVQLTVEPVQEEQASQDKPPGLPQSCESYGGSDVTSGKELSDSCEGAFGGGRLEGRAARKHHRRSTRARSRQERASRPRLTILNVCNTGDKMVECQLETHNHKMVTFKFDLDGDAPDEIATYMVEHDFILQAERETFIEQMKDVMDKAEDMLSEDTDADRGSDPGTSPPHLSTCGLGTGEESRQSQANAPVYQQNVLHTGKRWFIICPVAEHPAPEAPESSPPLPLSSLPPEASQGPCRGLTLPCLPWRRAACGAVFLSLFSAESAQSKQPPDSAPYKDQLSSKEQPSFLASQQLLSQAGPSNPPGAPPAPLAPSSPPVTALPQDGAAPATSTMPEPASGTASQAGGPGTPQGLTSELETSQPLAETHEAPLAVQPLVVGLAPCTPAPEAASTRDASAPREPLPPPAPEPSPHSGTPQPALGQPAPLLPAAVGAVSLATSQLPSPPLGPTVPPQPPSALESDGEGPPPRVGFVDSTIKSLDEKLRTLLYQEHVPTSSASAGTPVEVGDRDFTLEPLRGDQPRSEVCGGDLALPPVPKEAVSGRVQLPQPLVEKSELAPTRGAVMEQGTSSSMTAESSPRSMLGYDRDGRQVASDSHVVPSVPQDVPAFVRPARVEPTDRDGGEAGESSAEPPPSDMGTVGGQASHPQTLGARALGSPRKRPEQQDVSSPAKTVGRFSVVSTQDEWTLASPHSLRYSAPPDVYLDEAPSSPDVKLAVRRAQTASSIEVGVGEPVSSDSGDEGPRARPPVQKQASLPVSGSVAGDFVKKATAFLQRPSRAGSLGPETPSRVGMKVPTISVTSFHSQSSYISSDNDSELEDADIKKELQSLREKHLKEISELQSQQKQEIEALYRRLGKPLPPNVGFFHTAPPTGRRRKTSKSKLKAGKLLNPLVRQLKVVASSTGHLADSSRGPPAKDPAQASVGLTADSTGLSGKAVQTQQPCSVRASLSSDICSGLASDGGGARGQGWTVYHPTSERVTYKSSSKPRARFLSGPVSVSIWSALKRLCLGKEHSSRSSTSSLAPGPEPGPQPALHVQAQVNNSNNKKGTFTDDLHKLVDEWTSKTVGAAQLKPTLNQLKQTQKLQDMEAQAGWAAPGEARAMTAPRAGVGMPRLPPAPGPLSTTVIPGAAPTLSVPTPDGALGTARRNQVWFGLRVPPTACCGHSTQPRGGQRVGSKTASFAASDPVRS
# T7 sequence (O75116 whole entry): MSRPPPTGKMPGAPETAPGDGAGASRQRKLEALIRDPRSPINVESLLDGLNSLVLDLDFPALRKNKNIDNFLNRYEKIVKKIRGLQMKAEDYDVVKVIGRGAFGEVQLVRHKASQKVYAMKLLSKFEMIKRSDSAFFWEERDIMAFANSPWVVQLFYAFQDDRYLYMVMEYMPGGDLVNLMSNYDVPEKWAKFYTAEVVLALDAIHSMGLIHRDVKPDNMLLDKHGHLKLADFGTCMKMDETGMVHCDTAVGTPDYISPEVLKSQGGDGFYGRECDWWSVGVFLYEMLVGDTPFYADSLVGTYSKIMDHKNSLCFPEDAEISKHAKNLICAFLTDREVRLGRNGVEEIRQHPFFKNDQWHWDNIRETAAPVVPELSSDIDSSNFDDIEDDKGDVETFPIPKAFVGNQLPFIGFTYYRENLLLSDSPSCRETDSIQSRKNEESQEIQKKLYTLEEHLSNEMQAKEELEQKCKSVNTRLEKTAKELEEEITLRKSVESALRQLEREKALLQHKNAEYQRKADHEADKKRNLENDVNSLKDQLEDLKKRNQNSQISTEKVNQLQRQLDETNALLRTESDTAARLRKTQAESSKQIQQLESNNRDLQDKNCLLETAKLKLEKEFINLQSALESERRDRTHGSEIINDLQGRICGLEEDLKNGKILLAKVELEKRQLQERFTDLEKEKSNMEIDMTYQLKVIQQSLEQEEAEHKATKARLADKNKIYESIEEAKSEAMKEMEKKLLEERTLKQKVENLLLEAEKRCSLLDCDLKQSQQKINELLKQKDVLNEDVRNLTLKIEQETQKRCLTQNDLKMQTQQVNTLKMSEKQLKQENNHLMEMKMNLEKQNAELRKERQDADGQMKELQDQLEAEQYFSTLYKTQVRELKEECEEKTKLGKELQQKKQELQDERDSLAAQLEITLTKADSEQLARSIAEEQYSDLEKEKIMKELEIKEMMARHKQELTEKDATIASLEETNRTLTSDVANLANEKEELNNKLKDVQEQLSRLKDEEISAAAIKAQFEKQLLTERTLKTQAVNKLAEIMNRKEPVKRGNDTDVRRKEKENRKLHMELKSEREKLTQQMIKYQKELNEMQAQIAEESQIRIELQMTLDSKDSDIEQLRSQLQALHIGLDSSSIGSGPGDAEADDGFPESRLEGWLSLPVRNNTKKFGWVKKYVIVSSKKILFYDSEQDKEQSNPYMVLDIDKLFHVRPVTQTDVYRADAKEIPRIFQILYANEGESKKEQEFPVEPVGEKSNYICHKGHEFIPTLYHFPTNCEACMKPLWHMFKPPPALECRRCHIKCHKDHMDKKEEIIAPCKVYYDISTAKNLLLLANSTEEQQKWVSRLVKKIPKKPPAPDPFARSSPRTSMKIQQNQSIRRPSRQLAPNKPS
# T5 sequence (P53350 whole entry): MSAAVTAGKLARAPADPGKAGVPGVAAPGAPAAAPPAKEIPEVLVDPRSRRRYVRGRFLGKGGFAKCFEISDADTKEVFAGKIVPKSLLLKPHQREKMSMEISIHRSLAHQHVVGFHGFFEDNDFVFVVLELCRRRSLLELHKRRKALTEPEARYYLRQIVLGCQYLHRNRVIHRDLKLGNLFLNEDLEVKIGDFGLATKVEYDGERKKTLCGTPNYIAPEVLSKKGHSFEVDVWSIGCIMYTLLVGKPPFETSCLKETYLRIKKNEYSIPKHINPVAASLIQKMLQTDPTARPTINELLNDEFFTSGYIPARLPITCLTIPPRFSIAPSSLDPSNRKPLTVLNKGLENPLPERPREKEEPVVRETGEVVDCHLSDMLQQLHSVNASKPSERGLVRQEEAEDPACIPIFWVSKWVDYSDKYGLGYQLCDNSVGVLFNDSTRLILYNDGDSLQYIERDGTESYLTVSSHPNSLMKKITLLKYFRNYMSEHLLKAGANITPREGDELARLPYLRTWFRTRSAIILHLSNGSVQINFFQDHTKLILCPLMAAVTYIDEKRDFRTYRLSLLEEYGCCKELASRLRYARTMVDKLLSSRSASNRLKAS
# T8 sequence (Q52WX2 whole entry): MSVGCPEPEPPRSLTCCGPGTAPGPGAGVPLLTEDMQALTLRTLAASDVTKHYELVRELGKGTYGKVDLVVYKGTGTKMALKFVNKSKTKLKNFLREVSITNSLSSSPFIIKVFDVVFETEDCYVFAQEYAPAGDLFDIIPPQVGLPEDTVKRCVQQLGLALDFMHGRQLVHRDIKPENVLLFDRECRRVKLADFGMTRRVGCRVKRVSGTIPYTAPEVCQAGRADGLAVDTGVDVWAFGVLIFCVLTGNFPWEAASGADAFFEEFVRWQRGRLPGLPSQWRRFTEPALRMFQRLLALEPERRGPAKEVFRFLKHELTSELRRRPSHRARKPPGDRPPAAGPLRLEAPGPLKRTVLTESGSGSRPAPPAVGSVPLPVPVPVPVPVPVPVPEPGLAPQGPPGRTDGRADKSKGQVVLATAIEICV
structure (smiles),measurement,setting,value
"CN(C)CCNC(=O)c1ccc(-c2ccc(-c3ccc(Cl)cc3)n2-c2ccccc2C(F)(F)F)cc1 [Example 33, 4-[5-(4-chlorophenyl)-1-[2-(trifluoromethyl)phenyl]pyrrol-2-yl]-N-[2-(dimethylamino)ethyl]benzamide Hydrochloride]",GI50,HCT116 cells,10 nM
same,solubility kinetic,Kinetic solubility,32 µM
same,hepatocyte CLint,[1],10 µL/min/1e6 cells
same,cytochrome P450 inhibition 2C19,cytochrome P450 2C19,> 10 µM
same,AUC(0-t),"[2]; brain, read-out: AUClast (Brain)",31900 ng·h/mL
same,Tmax,"[2]; brain, read-out: Tmax (Brain)",24 h
same,AUC(0-t),"[2]; plasma, read-out: AUClast (Plasma)",5030 ng·h/mL
same,Tmax,"[2]; plasma, read-out: Tmax (Plasma)",8 h
same,IC50,[3],283 nM
same,IC50,[4],363 nM
same,IC50,[5],430 nM
same,IC50,[6],1110 nM
same,IC50,[7],1670 nM
same,remaining activity at 5 µM,AURKA,83%
same,remaining activity at 5 µM,EIF2AK1,98%
same,remaining activity at 5 µM,GSG2,77%
same,remaining activity at 5 µM,NEK11,100%
same,remaining activity at 5 µM,PLK1,100%
same,remaining activity at 5 µM,PLK3,74%
same,remaining activity at 5 µM,ROCK2,100%
same,remaining activity at 5 µM,SBK1,61%
same,remaining activity at 5 µM,STK36,91%
same,remaining activity at 5 µM,ULK3,88%
same,remaining activity at 5 µM,WNK2,100%
